The values below are quoted from earlier work in patent publication US20190231802A1, “CHEMOTHERAPEUTIC-RELEASING IMPLANTABLE STICK, METHODS OF MANUFACTURE AND PRECURSOR MATERIALS” (The Johns Hopkins University, priority 2016, published 2019).

The data set relates to selected cancer cell lines. Particulars: compared to paclitaxel, topotecan, CPT-11, docetaxel, carboplatin and temozolomide; previous study [8].

For the compound `COc1cccc2c1C(=O)c1c(O)c3c(c(O)c1C2=O)C[C@@](O)(C(=O)CO)C[C@@H]3O[C@H]1C[C@H](N)[C@H](O)[C@H](C)O1` [Doxorubicin], the IC50 result is recorded as “relatively low IC50”.
